From patent US9145392B2, “Imidazole amines as modulators of kinase activity” (Merck Patent GmbH, priority 2011, dated 2015)

Legend:
His-AKT (Full Length) = His-AKT (Full Length) (Homo sapiens (Human), UniProt P31749); assay: AKT enzyme assay; type: biochemical; conditions: read-out: IC50 AKT
Description: A TTP Mosquito liquid handling instrument is used to place 125n1 of the appropriate concentration of inhibitor in 100% DMSO (for a dose response curve calculation) into each well of a 384-well plate.
The reaction is incubated for 90 min at 25 C, and then stopped by the addition of 70 μl of Stop buffer (100 mM HEPES pH 7.5, 0.015% Brij-35, 10 mM EDTA (Sigma, E7889)).
The plate is read on a Caliper LC 3000 in an Off-Chip mobility shift assay format, using the following parameters for a 12-sipper chip: screening pressure −2.3 psi, upstream voltage −500, and downstream voltage −3000. These conditions cause unphosphorylated substrate and phosphorylated product peptide to resolve as separate peaks allowing direct measurement of percentage of conversion of substrate to product. The percent conversion can be plotted against concentration of inhibitor to produce a sigmoidal dose response curve, from which an IC50 can be calculated.

P70S6K (T412E mutant) = P70S6K (T412E mutant) (Homo sapiens (Human), UniProt P23443, T412E); assay: P70S6K enzyme assay; type: biochemical; conditions: read-out: IC50 p70S6K
Sequence of P70S6K (T412E mutant) (P23443 whole entry T412E): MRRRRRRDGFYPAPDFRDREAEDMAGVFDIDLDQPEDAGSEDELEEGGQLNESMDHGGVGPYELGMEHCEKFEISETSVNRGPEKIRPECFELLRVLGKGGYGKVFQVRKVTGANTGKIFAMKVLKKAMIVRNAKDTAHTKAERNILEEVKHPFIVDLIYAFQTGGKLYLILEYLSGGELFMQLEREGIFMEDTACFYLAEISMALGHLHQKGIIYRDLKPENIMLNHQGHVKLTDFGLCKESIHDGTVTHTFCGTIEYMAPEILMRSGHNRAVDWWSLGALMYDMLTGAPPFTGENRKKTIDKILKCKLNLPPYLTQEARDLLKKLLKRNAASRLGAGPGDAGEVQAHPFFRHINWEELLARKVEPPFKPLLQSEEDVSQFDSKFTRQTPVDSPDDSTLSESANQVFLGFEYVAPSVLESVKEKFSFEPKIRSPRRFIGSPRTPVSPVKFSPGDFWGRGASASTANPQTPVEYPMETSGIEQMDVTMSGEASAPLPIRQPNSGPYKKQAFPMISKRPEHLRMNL
How it was run: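 Read-out is the substrate/phosphopeptide ratio from mobility-shift electrophoresis on a LabChip 3000.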

Sequence of His-AKT (Full Length) (P31749 whole entry): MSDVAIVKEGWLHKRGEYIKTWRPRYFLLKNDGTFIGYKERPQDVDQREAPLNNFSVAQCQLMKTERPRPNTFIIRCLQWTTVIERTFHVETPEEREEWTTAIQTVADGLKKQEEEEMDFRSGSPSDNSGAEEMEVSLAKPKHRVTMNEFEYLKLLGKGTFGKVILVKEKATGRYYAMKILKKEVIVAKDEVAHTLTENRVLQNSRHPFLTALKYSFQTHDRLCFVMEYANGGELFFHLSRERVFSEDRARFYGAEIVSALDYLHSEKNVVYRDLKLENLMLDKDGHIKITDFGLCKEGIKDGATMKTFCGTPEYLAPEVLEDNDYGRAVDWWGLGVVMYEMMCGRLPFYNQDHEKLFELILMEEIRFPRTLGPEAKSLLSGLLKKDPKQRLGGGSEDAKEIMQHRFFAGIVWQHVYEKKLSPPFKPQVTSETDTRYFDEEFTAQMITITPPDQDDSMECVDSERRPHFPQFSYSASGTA

SMILES	IC50 (His-AKT (Full Length))	IC50 (P70S6K (T412E mutant))
NC(=O)c1c(N)ncnc1N1CCC(c2nc(-c3ccc(OC(F)F)cc3)cn2CCN2CCC2)CC1 [Compound 81, 4-Amino-6-{4-[1-(2-azetidin-1-yl-ethyl)-4-(4-difluoromethoxy-phenyl)-1H-imidazol-2-yl]-piperidin-1-yl}-pyrimidine-5-carboxylic acid amide]	15000 nM	98 nM
CN(C)CCn1cc(-c2ccc(F)c(C(F)(F)F)c2)nc1C1CCN(c2ncnc(N)c2CCC2CC2)CC1 [Compound 83, 5-(2-Cyclopropylethyl)-6-(4-(1-(2-(dimethylamino)ethyl)-4-(4-fluoro-3-(trifluoromethyl)phenyl)-1H-imidazol-2-yl)piperidin-1-yl)pyrimidin-4-amine]	190 nM	20 nM
CCOCCc1c(N)ncnc1N1CCC(c2nc(-c3ccc(F)c(C(F)(F)F)c3)cn2CCN(C)C)CC1 [Compound 84, 6-(4-(1-(2-(Dimethylamino)ethyl)-4-(4-fluoro-3-(trifluoromethyl)phenyl)-1H-imidazol-2-yl)piperidin-1-yl)-5-(2-ethoxyethyl)pyrimidin-4-amine]	340 nM	5.2 nM
CN(C)CCn1cc(-c2ccc(F)c(C(F)(F)F)c2)nc1C1CCN(c2ncnc(N)c2/C=C/C2CC2)CC1 [Compound 85, (E)-5-(2-Cyclopropylvinyl)-6-(4-(1-(2-(dimethylamino)ethyl)-4-(4-fluoro-3-(trifluoromethyl)phenyl)-1H-imidazol-2-yl)piperidin-1-yl)pyrimidin-4-amine]	43 nM	12 nM
CN(C)CCn1cc(-c2ccc(F)c(C(F)(F)F)c2)nc1C1CCN(c2ncnc(N)c2-c2ccc(C(C)(C)O)cc2)CC1 [Compound 87, 2-(4-(4-Amino-6-(4-(1-(2-(dimethylamino)ethyl)-4-(4-fluoro-3-(trifluoromethyl)phenyl)-1H-imidazol-2-yl)piperidin-1-yl)pyrimidin-5-yl)phenyl)propan-2-ol]	190 nM	9.3 nM
COC(=O)c1ccc(-c2c(N)ncnc2N2CCC(c3nc(-c4ccc(F)c(C(F)(F)F)c4)cn3CCN(C)C)CC2)cc1 [Compound 88, Methyl 4-(4-amino-6-(4-(1-(2-(dimethylamino)ethyl)-4-(4-fluoro-3-(trifluoromethyl)phenyl)-1H-imidazol-2-yl)piperidin-1-yl)pyrimidin-5-yl)benzoate]	95 nM	8.1 nM
CN(C)CCn1cc(-c2ccc(F)c(C(F)(F)F)c2)nc1C1CCN(c2ncnc(N)c2-c2ccc(C(=O)O)cc2)CC1 [Compound 89]	33 nM	7.3 nM
CN(C)CCn1cc(-c2ccc(F)c(C(F)(F)F)c2)nc1C1CCN(c2ncnc(N)c2C2=CCCC2)CC1 [Compound 90]	31 nM	3.1 nM
CCc1c(N)ncnc1N1CCC(c2nc(-c3ccc(F)c(C(F)(F)F)c3)cn2CCN2CC(F)C2)CC1 [Compound 92, 5-ethyl-6-(4-(4-(4-fluoro-3-(trifluoromethyl)phenyl)-1-(2-(3-fluoroazetidin-1-yl)ethyl)-1H-imidazol-2-yl)piperidin-1-yl)pyrimidin-4-amine]	71 nM	4.2 nM
CCc1c(N)ncnc1N1CCC(c2nc(-c3ccc(F)c(C(F)(F)F)c3)cn2CCN2CC(F)(F)C2)CC1 [Compound 94, 6-(4-(1-(2-(3,3-difluoroazetidin-1-yl)ethyl)-4-(4-fluoro-3-(trifluoromethyl)phenyl)-1H-imidazol-2-yl)piperidin-1-yl)-5-ethylpyrimidin-4-amine]	1600 nM	13 nM
CCN(C)Cc1c(N)ncnc1N1CCC(c2nc(-c3ccc(F)c(C(F)(F)F)c3)cn2CCN(C)C)CC1 [Compound 95, 6-(4-(1-(2-(dimethylamino)ethyl)-4-(4-fluoro-3-(trifluoromethyl)phenyl)-1H-imidazol-2-yl)piperidin-1-yl)-5-((ethyl(methyl)amino)methyl)pyrimidin-4-amine]	520 nM	47 nM
CCc1c(N)ncnc1N1CCC(c2nc(-c3cncc(C(F)(F)F)c3)cn2CCN2CCC2)CC1 [Compound 99, 6-(4-(1-(2-(azetidin-1-yl)ethyl)-4-(5-(trifluoromethyl)pyridin-3-yl)-1H-imidazol-2-yl)piperidin-1-yl)-5-ethylpyrimidin-4-amine]	18 nM	4.5 nM

Stronger by IC50 (His-AKT (Full Length)), values ahead:

IC50 (His-AKT (Full Length))	IC50 (P70S6K (T412E mutant))	SMILES
12 nM	3.7 nM	CCc1c(N)ncnc1N1CCC(c2nc(-c3ccc(F)c(C(F)(F)F)c3)cn2CCN(C)C)CC1 [Compound 82, 6-(4-(1-(2-(Dimethylamino)ethyl)-4-(4-fluoro-3-(trifluoromethyl)phenyl)-1H-imidazol-2-yl)piperidin-1-yl)-5-ethylpyrimidin-4-amine]
4 nM	1.9 nM	CCO/C=C/c1c(N)ncnc1N1CCC(c2nc(-c3ccc(F)c(C(F)(F)F)c3)cn2CCN(C)C)CC1 [Compound 86, (E)-6-(4-(1-(2-(Dimethylamino)ethyl)-4-(4-fluoro-3-(trifluoromethyl)phenyl)-1H-imidazol-2-yl)piperidin-1-yl)-5-(2-ethoxyvinyl)pyrimidin-4-amine]
4.8 nM	3.2 nM	CN(C)CCn1cc(-c2ccc(F)c(C(F)(F)F)c2)nc1C1CCN(c2ncnc(N)c2C2CC2)CC1 [Compound 91, 5-Cyclopropyl-6-(4-(1-(2-(dimethylamino)ethyl)-4-(4-fluoro-3-(trifluoromethyl)phenyl)-1H-imidazol-2-yl)piperidin-1-yl)pyrimidin-4-amine]
7.7 nM	3 nM	CCc1c(N)ncnc1N1CCC(c2nc(-c3ccc(F)c(C(F)(F)F)c3)cn2CCN2CC(C)C2)CC1 [Compound 93, 5-ethyl-6-(4-(4-(4-fluoro-3-(trifluoromethyl)phenyl)-1-(2-(3-methylazetidin-1-yl)ethyl)-1H-imidazol-2-yl)piperidin-1-yl)pyrimidin-4-amine]
7.9 nM	5.3 nM	CC(C)Oc1c(N)ncnc1N1CCC(c2nc(-c3ccc(F)c(C(F)(F)F)c3)cn2CCN2CCC2)CC1 [Compound 96, 6-(4-(1-(2-(azetidin-1-yl)ethyl)-4-(4-fluoro-3-(trifluoromethyl)phenyl)-1H-imidazol-2-yl)piperidin-1-yl)-5-isopropoxypyrimidin-4-amine]
6.1 nM	2.2 nM	COc1c(N)ncnc1N1CCC(c2nc(-c3ccc(F)c(C(F)(F)F)c3)cn2CCN2CCC2)CC1 [Compound 97, 6-(4-(1-(2-(azetidin-1-yl)ethyl)-4-(4-fluoro-3-(trifluoromethyl)phenyl)-1H-imidazol-2-yl)piperidin-1-yl)-5-methoxypyrimidin-4-amine]
6.9 nM	3 nM	Nc1ncnc(N2CCC(c3nc(-c4ccc(F)c(C(F)(F)F)c4)cn3CCN3CCC3)CC2)c1-c1cn[nH]c1 [Compound 98, 6-(4-(1-(2-(azetidin-1-yl)ethyl)-4-(4-fluoro-3-(trifluoromethyl)phenyl)-1H-imidazol-2-yl)piperidin-1-yl)-5-(1H-pyrazol-4-yl)pyrimidin-4-amine]
16 nM	2.3 nM	CCc1c(N)ncnc1N1CCC(c2nc(-c3cccc(OC(F)(F)F)c3)cn2CCN2CCC2)CC1 [Compound 100, 6-(4-(1-(2-(azetidin-1-yl)ethyl)-4-(3-(trifluoromethoxy)phenyl)-1H-imidazol-2-yl)piperidin-1-yl)-5-ethylpyrimidin-4-amine]
